Test systems include K-562 leukemia; MALME-3M melanoma; SF-295 CNS; SF-268 CNS; KM12 colon; A549 NSCLC; NCI/ADR-RES ovarian; OVCAR-3 ovarian; SK-MEL-28 melanoma; SF-539 CNS.
Holding throughout (test): inhibition of tumour cell growth, NCI panel, 48 h

The structures appear in SMILES notation.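 1) Cells in 96-well plates. 2) Compound, 48 h, 5 concentrations. 3) Linear interpolation between surrounding doses. 4) Unreached endpoint = highest concentration. The concentration for full growth arrest is given as TGI.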

Take `CC[N+](C)(CC)CCC(O)(c1ccccc1)c1ccccc1`: the TGI in the experiment with K-562 leukemia, in the experiment with MALME-3M melanoma, with SF-295 CNS, with SF-268 CNS, with KM12 colon and in the experiment on A549 NSCLC was > 100 µM throughout. Also, the TGI in the experiment on NCI/ADR-RES ovarian, in the experiment on OVCAR-3 ovarian and with SK-MEL-28 melanoma was > 100 µM throughout.
On to `C/C(=C\c1ccccn1)c1ccccn1`, for which the TGI in the experiment with K-562 leukemia, with MALME-3M melanoma, with SF-295 CNS, with SF-268 CNS, with KM12 colon and in the experiment with A549 NSCLC was > 100 µM in each case. In addition, the TGI with NCI/ADR-RES ovarian, in the experiment with OVCAR-3 ovarian and in the experiment on SK-MEL-28 melanoma was > 100 µM each time.
In the case of `C/C=C\C(CC(=O)NCCc1cn(C(=O)OCc2ccccc2)c2ccccc12)CC(=O)OC` (stereo not given), the TGI in the experiment on K-562 leukemia, with MALME-3M melanoma, with SF-295 CNS, in the experiment with SF-268 CNS, in the experiment on KM12 colon and with A549 NSCLC was > 100 µM in each case. The TGI in the experiment on NCI/ADR-RES ovarian, in the experiment with OVCAR-3 ovarian and in the experiment with SK-MEL-28 melanoma was > 100 µM in each case.
Consider `CCOC(=O)C(=[N+]=[N-])C(=O)Nc1nn2nnnc2c2ccccc12`, for which the TGI in the experiment with K-562 leukemia, with MALME-3M melanoma, in the experiment on SF-539 CNS, in the experiment on SF-295 CNS, in the experiment on KM12 colon and in the experiment on A549 NSCLC was > 100 µM each time. Also, the TGI in the experiment with NCI/ADR-RES ovarian, in the experiment on OVCAR-3 ovarian and with SK-MEL-28 melanoma was > 100 µM throughout.
On to `N=c1oc2ccc3ccccc3c2cc1C(N)=O`, for which the TGI is > 100 µM in the experiment with SF-268 CNS; 63 µM with KM12 colon; > 100 µM in the experiment on A549 NSCLC; > 100 µM in the experiment on NCI/ADR-RES ovarian; > 100 µM in the experiment with OVCAR-3 ovarian; > 100 µM in the experiment on SK-MEL-28 melanoma.
On to `c1ccc(CCN2CCc3[nH]c4ccccc4c3C2)cc1`, for which the TGI in the experiment on K-562 leukemia was 45.5 µM; with MALME-3M melanoma it was 32.8 µM; in the experiment on SF-539 CNS it was 40 µM; in the experiment with SF-295 CNS, 35.2 µM; in the experiment on SF-268 CNS, > 100 µM; with KM12 colon it was 34.9 µM. Further, the TGI came out at 62.3 µM in the experiment with A549 NSCLC, 36.9 µM in the experiment with NCI/ADR-RES ovarian and 41.8 µM in the experiment on SK-MEL-28 melanoma.
Turning to `Cc1cccc2c1[nH]c1[nH]c(=O)[nH]c(=O)c12`, the TGI in the experiment with K-562 leukemia, in the experiment on MALME-3M melanoma, with SF-539 CNS, in the experiment on SF-295 CNS, in the experiment with SF-268 CNS and in the experiment on KM12 colon was > 100 µM throughout. The TGI with A549 NSCLC, with NCI/ADR-RES ovarian and in the experiment on OVCAR-3 ovarian was > 100 µM throughout.
Regarding `O=CC(O)C(O)C(O)C(O)C(=O)NCCCCCCCCCCCCNC(=O)C(O)C(O)C(O)C(O)C=O` (stereo not given), the TGI in the experiment on MALME-3M melanoma, with SF-539 CNS, in the experiment on SF-295 CNS, in the experiment with SF-268 CNS, with KM12 colon and in the experiment with A549 NSCLC was > 100 µM throughout. Besides, the TGI in the experiment on NCI/ADR-RES ovarian, in the experiment on OVCAR-3 ovarian and in the experiment with SK-MEL-28 melanoma was > 100 µM each time.
`COc1cc2nc(-c3ccc4ccccc4c3)[nH]c(=O)c2cc1OC`: the TGI in the experiment on K-562 leukemia, in the experiment on MALME-3M melanoma, in the experiment on SF-295 CNS, in the experiment on SF-268 CNS, with KM12 colon and with A549 NSCLC was > 100 µM in each case. Also, the TGI in the experiment on NCI/ADR-RES ovarian and in the experiment with OVCAR-3 ovarian was > 100 µM throughout.
`Nc1cccc2c1C(=O)c1cccc(N)c1C2=O`: the TGI in the experiment on K-562 leukemia, in the experiment with MALME-3M melanoma, in the experiment with SF-539 CNS, in the experiment on SF-268 CNS, in the experiment with KM12 colon and in the experiment with A549 NSCLC was > 100 µM in each case. In addition, the TGI with OVCAR-3 ovarian and with SK-MEL-28 melanoma was > 100 µM throughout.
Consider `Cc1cc(O)c(C(C)C)cc1SC#N`, for which the TGI in the experiment with K-562 leukemia is 55 µM; in the experiment on MALME-3M melanoma it was 35.9 µM; in the experiment on SF-539 CNS it was 37.1 µM; with SF-295 CNS, 31.2 µM; in the experiment with SF-268 CNS it was 49.3 µM; in the experiment with KM12 colon it was 31.4 µM. For the same molecule, the TGI worked out at 47.7 µM in the experiment on NCI/ADR-RES ovarian, 28.8 µM in the experiment on OVCAR-3 ovarian and 33.8 µM with SK-MEL-28 melanoma.
On to `COC(=O)C1CCC(=O)N1C(=O)Cc1ccc(OC)cc1` (stereo not given), for which the TGI with SF-295 CNS, in the experiment on SF-268 CNS, in the experiment with KM12 colon, with A549 NSCLC, in the experiment on OVCAR-3 ovarian and with SK-MEL-28 melanoma was > 100 µM each time.
`CCc1c(Cc2cccc3ccccc23)n2c(nc1=O)SCC2OCCO` (stereo not given): the TGI with K-562 leukemia, with MALME-3M melanoma, in the experiment on SF-539 CNS, in the experiment on SF-268 CNS, in the experiment on KM12 colon and in the experiment with A549 NSCLC was > 100 µM each time. The TGI with NCI/ADR-RES ovarian and in the experiment with SK-MEL-28 melanoma was > 100 µM each time.
On to `COc1ccc(/C=c2\[nH]c3nc(=O)c(N4CCOCC4)c(N)n3c2=O)cc1`, for which the TGI in the experiment with K-562 leukemia, in the experiment on MALME-3M melanoma, in the experiment with SF-539 CNS, in the experiment on SF-295 CNS, with SF-268 CNS and in the experiment with KM12 colon was > 100 µM each time. Also, the TGI in the experiment on A549 NSCLC, with NCI/ADR-RES ovarian and with SK-MEL-28 melanoma was > 100 µM throughout.
In the case of `Cc1ccc(S(=O)(=O)NNC(=O)c2cc(C)ccc2NC(=O)C23CC4CC(CC(C4)C2)C3)cc1`, the TGI in the experiment on K-562 leukemia is > 100 µM; in the experiment with MALME-3M melanoma it was 80.4 µM; with SF-539 CNS, > 100 µM; with SF-295 CNS, > 100 µM; with SF-268 CNS, > 100 µM; in the experiment with KM12 colon, > 100 µM. For the same molecule, the TGI in the experiment on A549 NSCLC, with NCI/ADR-RES ovarian and with OVCAR-3 ovarian was > 100 µM each time.
With `Cc1ccccc1-n1c(C)nc2c1C(=O)c1ccccc1C2=O`, the TGI is > 100 µM in the experiment on K-562 leukemia; 41.3 µM with MALME-3M melanoma; > 100 µM with SF-539 CNS; > 100 µM in the experiment with SF-295 CNS; > 100 µM with SF-268 CNS; > 100 µM in the experiment with KM12 colon. The TGI with A549 NSCLC was > 100 µM; in the experiment on OVCAR-3 ovarian it was 61.8 µM; with SK-MEL-28 melanoma, > 100 µM.

The values above are taken from PubChem BioAssay (NCI).
